The results in this text go back to US20240398823A1, “DUAL INHIBITOR OF HISTONE DEACETYLASE 6 AND HEAT SHOCK PROTEIN 90” (TAIPEI MEDICAL UNIVERSITY, priority 2021, published 2024).

Bounds are passed on as bounds.

Series [1] can be described thus: Toxicity, body weight and blood counts in BALB/c mice with CT26 tumors. Type of series: in vivo.
The test system of series [2] is colorectal cancer tumors (CT26). Description: CT26 syngeneic tumor growth in immunocompetent Balb/c mice. Type of series: in vivo, mouse. Particulars: CT26 in Balb/c, 10, 25, 50 mg/kg i.v. every two days. As for the experimental part:
Tumor size in each mouse (FIG. 5B) and mean tumor size (FIG. 5C) were measured periodically. Bar, SEM. […] N values greater than 3.
The effects of the HSP90/HDAC6 dual inhibitors as described in Synthesis Examples (such as Compounds 63, 64, and 66 to 76) on syngeneic tumor treatment were evaluated. Female BALB/c mice were subcutaneously implanted with mouse colorectal cancer CT26 cells ([…] cells/mouse) in the left unilateral back. After tumor size reached 50 mm^3, mice were i.v. injected with […], STA9090 (Ganetespib), or anti-PD-1 antibody (clone RMP1-14) (4-8 mice per group). The progression of tumor sizes and body weights was measured twice per week. Tumor volume formula: V (mm^3)=(length×width×height)/2. Mice were sacrificed on day 25, and tumors and blood were collected for the analysis of immune cell populations.
After CT26 was injected subcutaneously into the back of immunocompetent mice (Balb/c), the tumors grew to 50 mm^3. Compound 75 was administered intravenously at 10 mg/kg, 25 mg/kg and 50 mg/kg every two days (FIG. 5A).

For series [3], the system named is human lung normal fibroblasts (IMR-90). Description: MTT cytotoxicity to normal cells, IMR-90. Type of series: cell-based. Conditions: 48 hours, read-out: IC50, proliferation of IMR-90. As for the experimental part:
FIGS. 3A and 3B show the effects of Compound 75 on cytotoxicity to normal cell lines. Cells were treated with DMSO or different concentrations of Compound 75 for 48 hours and cell viability was assessed by MTT assay. […] Data are expressed as mean t S.D. N values greater than 3. * P<0.05; ** P<0.01; *** P<0.001, compared with the control group.
The effects on cell viability of the HSP90/HDAC6 dual inhibitors as described in Synthesis Examples (such as Compounds 63, 64, and 66 to 76) were evaluated. Cells were seeded in 96-well plates (5000 cells/well). The next day, the serially diluted drugs were added into the wells and incubated at 37° C. for 48 h. Cell viability was measured by the MTT assay and is expressed as percentages of surviving drug-treated cells relative to untreated control cells. The IC50 was calculated by non-linear regression analysis.
The cytotoxicity to normal cells of Compound 75 was evaluated.

For series [4], the system named is T cells in blood (CD8+, CD4+, Treg). Description: Peripheral blood immune cells by flow cytometry in CT26 tumor mice. The series is classed as in vivo, mouse. Particulars: day 25, flow cytometry, 10, 25, 50 mg/kg. How it is done: FIGS. 10A to 10C show immune cell regulation of peripheral blood by Compound 75. BALB/c mice with CT26 tumors were treated with 10, 25 and 50 mg/kg of Compound 75 every two days, and blood was collected from the heart and analyzed by flow cytometry on day 25 for cytotoxicity T cells (CD3+CD8+) (as shown in FIG. 10A), helper T cells (CD3^+CD4^+) (as shown in FIG. 10B) and regulatory T cells (CD3^+CD4^+FOXP3^+) (as shown in FIG. 10C). Data are expressed as mean±S.D. N values greater than 3. * P<0.05; ** P<0.01; *** P<0.001, compared with the control group.
The reasons for the decrease of Treg in blood were further investigated.
Background: In flow cytometry, cells or beads pass a laser one at a time.

A further series addresses T1, HDAC3 (Homo sapiens, UniProt O15379).
T1 construct: Reaction Biology Corporation (ran the assay as a service)
In words: HDAC enzymes inhibition assay (Reaction Biology), HDAC3. Conditions: 10-dose, 3-fold dilution from 10 μM, single experiment. The series is classed as biochemical.

For series [5], the system named is PD-L1 and IDO expression in HCT116 and CT26 cell lines. In words: Western blot of IFN-γ-induced PD-L1 and IDO, STAT1 pathway, in HCT116 and CT26. The series is classed as cell-based, human; mouse. Particulars: HCT116 and CT26, 48 hours, via p-STAT1 and STAT1. As for the experimental part:
The cells were tested in 6-well plates with 32×10^4 cells/well and co-treated with Compound 75 for 48 hours and analyzed by flow cytometry. Bar, SD.
The effects of the HSP90/HDAC6 dual inhibitors as described in Synthesis Examples (such as Compounds 63, 64, and 66 to 76) on several factors were evaluated. Cells were lysed in RIPA buffer (Thermo Fisher Scientific, Wal-tham, MA, USA) and protease inhibitor (Roche, Basel, CH). Sample were further separated in 8% or 15% SDS-PAGE and transferred to nitrocellulose membrane and blocked with 5% skim milk (w/v in PBS). Nitrocellulose membranes were then incubated with primary antibodies against the following antigens: HSP90, Src, AKT, Rb, phosphorylated Rb (p-Rb), FAK, HSP70, α-tubulin acetylation, acetyl histone H3, phosphorylated STAT1 (p-STAT1), STAT1 (Cell signaling, Danvers, MA, USA), α-tubulin, Histone H3 (Genetex, Irvine, USA), IDO (Santa Cruz Biotechnology Dallas, TX, USA) and PD-L1 (Novus, Littleton, CO, USA) at 4° C. for overnight. The target proteins were visualized by using HRP-conjugated secondary antibodies (Jackson ImmunoResearch Laboratories, West Grove, PA, USA) and enhanced chemiluminescence kit (Thermo Fisher Scientific, Waltham, MA, U.S.A.).
Using western blot, whether Compound 75 reduced […]-induced PD-L1 and IDO performance by inhibiting STAT1 pathway was evaluated.
A general note: In western blotting, separated proteins are transferred to a membrane and probed.

[6] abbreviates: CT26 in Balb/c, 10, 25, 50 mg/kg i.v. every two days.

T1 sequence (O15379 whole entry): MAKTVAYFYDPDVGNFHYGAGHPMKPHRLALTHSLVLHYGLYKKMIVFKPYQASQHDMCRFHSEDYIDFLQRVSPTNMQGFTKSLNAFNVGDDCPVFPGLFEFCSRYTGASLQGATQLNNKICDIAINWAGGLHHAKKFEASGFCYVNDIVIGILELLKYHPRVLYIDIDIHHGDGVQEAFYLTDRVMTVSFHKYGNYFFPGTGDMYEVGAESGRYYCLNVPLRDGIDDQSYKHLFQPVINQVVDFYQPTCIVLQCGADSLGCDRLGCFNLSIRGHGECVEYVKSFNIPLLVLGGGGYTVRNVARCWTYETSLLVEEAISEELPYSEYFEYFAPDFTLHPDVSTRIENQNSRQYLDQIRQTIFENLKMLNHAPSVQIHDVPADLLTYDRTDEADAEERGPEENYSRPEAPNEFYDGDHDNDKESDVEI
T1 sequence (Q9Y618 395-489 partner limits assumed): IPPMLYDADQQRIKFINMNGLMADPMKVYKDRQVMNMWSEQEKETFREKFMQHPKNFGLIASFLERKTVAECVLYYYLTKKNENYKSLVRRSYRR

With `COc1ccc(N(Cc2ccc(C(=O)NO)cc2)C(=O)c2cc(C(C)C)c(O)cc2O)cc1` [Compound 75, 2,4-Dihydroxy-N-(4-hydroxycarbamoyl-benzyl)-5-isopropyl-N-(4-methoxy-phenyl)-benzamide], in series [1] (setting [6]), the body weight result is given as “no significant change in body weight” and the toxicity in mice result was “no significant toxicity”. Also, the “white blood cell, lymphocyte, red blood cell, hemoglobin and platelet counts, lymphocyte percentage” value in series [1] (blood from heart on day 25, 10, 25, 50 mg/kg every two days, versus control group) is recorded as “not significantly different”. Also, the “organ toxicity or hematotoxicity” value in series [1] (immunocompetent mice) is reported as “does not cause significant organ toxicity or hematotoxicity”. Also, the “growth of colorectal cancer tumors in mice” value in series [2] is reported as “inhibit the growth of colorectal cancer tumors in mice”. In addition, the IC50 in series [3] was above 20000 nM. For the same compound, in series [4], the “immunosuppressive Treg cell level in blood” value was “could be reduced in a concentration dependent manner”, the “percentage of CD4+ helper T cells in blood” value is reported as “did not affect” and the “percentage of CD8+ cytotoxicity T cells in blood” value is “did not affect”. Further, the IC50 against HDAC3 stood at 1370 nM. Moreover, the “IFN-γ-induced PD-L1 and IDO expression” value in series [5] is “downregulated PD-L1 and IDO expression”.
